Experimental data as given in PubChem BioAssay (NCI).
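Dose response: 5 concentrations. Exposure: 48 h. Format: 96-well plates. Endpoint: linear interpolation; highest concentration if not reached. TGI: total growth inhibition.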

Experiments:
Test in all cases: DTP human tumour cell line panel, 48 h
NCI-H522 lung = test system: NCI-H522 lung
MCF7 breast = test system: MCF7 breast
SN12C renal = test system: SN12C renal
HT29 colon = test system: HT29 colon
SW-620 colon = test system: SW-620 colon
MALME-3M melanoma = test system: MALME-3M melanoma
SF-539 CNS = test system: SF-539 CNS
KM12 colon = test system: KM12 colon
NCI-H23 lung = test system: NCI-H23 lung
RPMI-8226 leukemia = test system: RPMI-8226 leukemia
MDA-N = test system: MDA-N
A549 NSCLC = test system: A549 NSCLC
SK-MEL-5 melanoma = test system: SK-MEL-5 melanoma
OVCAR-8 ovarian = test system: OVCAR-8 ovarian
PC-3 prostate = test system: PC-3 prostate
SF-268 CNS = test system: SF-268 CNS
786-0 renal = test system: 786-0 renal
M14 melanoma = test system: M14 melanoma
SK-OV-3 ovarian = test system: SK-OV-3 ovarian

Structure (SMILES)	TGI (NCI-H522 lung) [µM]	TGI (MCF7 breast) [µM]	TGI (SN12C renal) [µM]	TGI (HT29 colon) [µM]	TGI (SW-620 colon) [µM]	TGI (MALME-3M melanoma) [µM]	TGI (SF-539 CNS) [µM]	TGI (KM12 colon) [µM]	TGI (NCI-H23 lung) [µM]	TGI (RPMI-8226 leukemia) [µM]	TGI (MDA-N) [µM]	TGI (A549 NSCLC) [µM]	TGI (SK-MEL-5 melanoma) [µM]	TGI (OVCAR-8 ovarian) [µM]	TGI (PC-3 prostate) [µM]	TGI (SF-268 CNS) [µM]	TGI (786-0 renal) [µM]	TGI (M14 melanoma) [µM]	TGI (SK-OV-3 ovarian) [µM]
CN(C)CCNC(=O)c1cc([N+](=O)[O-])cc2c1Oc1ccccc1O2	> 100	> 100	> 100	> 100	> 100	97.9	> 100	> 100	> 100	> 100	> 100	> 100	> 100	> 100	> 100	> 100	> 100	> 100	
O=C1NCc2ccccc2S(=O)(=O)n2cccc21	> 100	> 100	> 100	> 100	> 100	> 100	> 100	> 100	> 100	> 100	> 100	> 100	> 100	> 100	> 100	> 100	> 100	> 100	> 100
CC(C)(C)OC(=O)N1CCC(C(=O)O)CC1	> 100	> 100	> 100	> 100	> 100	> 100	> 100	> 100	> 100	> 100	> 100	> 100	> 100	> 100	> 100	> 100	> 100	> 100	
CCOC(=O)c1nc2ccccc2nc1NCc1cc(OC)c(OC)c(OC)c1	> 100	> 100	> 100	> 100	> 100	> 100	> 100	> 100	> 100	> 100	51.8	> 100	> 100	> 100	> 100	> 100	> 100		> 100
O=c1ccn([C@@H]2C[C@@H]2CO)c(=O)[nH]1	> 100	> 100	> 100	> 100	> 100	> 100	> 100	> 100	> 100	> 100	> 100	> 100	> 100	> 100	> 100	> 100	> 100	> 100	
O=C(CCCN1CCC2(CC1)CC(=O)N(N1CCCCCC1)C2=O)c1ccccc1	> 100	> 100	> 100	> 100		> 100	> 100		> 100	> 100	> 100	> 100	> 100	> 100	> 100	> 100	> 100	> 100	> 100
O=S(Nc1ccccc1)c1cccc(Cl)c1 (stereo unspecified)	> 100	> 100	> 100	> 100	> 100	> 100	77.6	> 100	> 100	> 100	> 100	> 100	> 100	> 100	> 100	> 100	> 100	> 100	
O=C1NC(=S)N/C1=C\c1ccc(Br)s1	> 100	> 100	> 100	> 100	> 100	> 100		> 100	> 100	81.3	> 100		> 100		> 100	> 100	> 100		> 100
CCCCCCCCCCCCCCCCOCC(CC(F)(F)P(=O)(OCC)OCC)OC(C)=O (stereo unspecified)	31.2	33.5	44.5	35.5	29.7	25.7		23.8	34.6	> 100	31.6	24.7	36.2		26.7	27.5	23	31.9	35
CCSc1n/c(=C\c2ccco2)c2nncn12	> 100	> 100	> 100	> 100	> 100	> 100		> 100	> 100	> 100	> 100	> 100	> 100	> 100	> 100	> 100	> 100	> 100	> 100
